Results taken from patent US20230150960A1, “COMPOSITIONS AND METHODS OF USING CYANINE DYES TO TARGET CANCER AND MITOCHONDRIA” (Thomas Jefferson University, priority 2020, published 2023).

How the values were obtained:
Format in all cases: physicochemical
[1] = Solubility of glycerol-containing formulations (post vortexing, 30 min and overnight at 18° C.); conditions: glycerol-containing formulation, compound 2 mg/mL; for solubility at 30 min / solubility: 18 °C; for solubility at 30 min: after 30 minutes incubation at 18° C.; for solubility: overnight incubation at 18° C.; for solubility at 30 s: post vortexing
Procedure: Tables 3A, 3B, and 3C describe solubility experiments conducted with the indicated compounds under the listed conditions. Vortexing was conducted using a Denville Vortexer 59 (Denville Scientific Inc.), at maximum speed for 30 seconds. As used herein, the term overnight refers to a period lasting at least about 12-24 hours.

[2] = Solubility of sodium deoxycholate-containing formulations (post vortexing, 30 min and overnight at 18° C.); conditions: compound 2 mg/mL; for solubility at 30 s: post vortexing
Procedure: Tables 5A, 5B, and 5C describe solubility experiments conducted with the indicated compounds under the listed conditions. Vortexing was conducted using a Denville Vortexer 59 (Denville Scientific Inc.), at maximum speed for 30 seconds. As used herein, the term overnight refers to a period lasting at least about 12-24 hours.

[3] = Solubility of BSA-containing formulations (post vortexing, 30 min and overnight at 18° C.); conditions: BSA-containing formulation, aqueous with cosolvent or surfactant or cyclodextrin, compound 2 mg/mL; for solubility at 30 min / solubility: 18 °C; for solubility at 30 min: after 30 minutes incubation at 18° C.; for solubility: overnight incubation at 18° C.; for solubility at 30 s: post vortexing
Procedure: Vortexing was conducted using a Denville Vortexer 59 (Denville Scientific Inc.), at maximum speed for 30 seconds. As used herein, the term overnight refers to a period lasting at least about 12-24 hours.

CCN1/C(=C/C=C/c2oc3ccccc3[n+]2CC)Oc2ccccc21 [JAC-R1, 3′,3′-Diethyloxacarbocyanine iodide] gave a solubility at 30 min ([1]; aqueous with cosolvent or surfactant or cyclodextrin, 10% glycerol, read-out: Solubility of glycerol-containing formulations after 30 min incubation at 18° C., 10%) of less than 2000 µg/mL, a solubility ([1]; aqueous with cosolvent or surfactant or cyclodextrin, 10% glycerol, read-out: Solubility of glycerol-containing formulations after overnight incubation at 18° C., 10%) of less than 2000 µg/mL and a solubility at 30 min ([1]; aqueous with cosolvent or surfactant or cyclodextrin, 20% glycerol, read-out: Solubility of glycerol-containing formulations after 30 min incubation at 18° C., 20%) of less than 2000 µg/mL. The solubility ([1]; aqueous with cosolvent or surfactant or cyclodextrin, 20% glycerol, read-out: Solubility of glycerol-containing formulations after overnight incubation at 18° C., 20%) was less than 2000 µg/mL, the solubility at 30 min ([1]; aqueous with cosolvent or surfactant or cyclodextrin, 30% glycerol, read-out: Solubility of glycerol-containing formulations after 30 min incubation at 18° C., 30%) was less than 2000 µg/mL and the solubility ([1]; aqueous with cosolvent or surfactant or cyclodextrin, 30% glycerol, read-out: Solubility of glycerol-containing formulations after overnight incubation at 18° C., 30%) was less than 2000 µg/mL. The solubility at 30 min ([1]; aqueous with cosolvent or surfactant or cyclodextrin, 40% glycerol, read-out: Solubility of glycerol-containing formulations after 30 min incubation at 18° C., 40%) was less than 2000 µg/mL, the solubility ([1]; aqueous with cosolvent or surfactant or cyclodextrin, 40% glycerol, read-out: Solubility of glycerol-containing formulations after overnight incubation at 18° C., 40%) was less than 2000 µg/mL and the solubility at 30 min ([1]; aqueous with cosolvent or surfactant or cyclodextrin, 50% glycerol, read-out: Solubility of glycerol-containing formulations after 30 min incubation at 18° C., 50%) was less than 2000 µg/mL. It also gave a solubility ([1]; aqueous with cosolvent or surfactant or cyclodextrin, 50% glycerol, read-out: Solubility of glycerol-containing formulations after overnight incubation at 18° C., 50%) of less than 2000 µg/mL, a solubility at 30 min ([1]; 0% glycerol, read-out: Solubility of glycerol-containing formulations after 30 min incubation at 18° C., 0%) of less than 2000 µg/mL and a solubility ([1]; 0% glycerol, read-out: Solubility of glycerol-containing formulations after overnight incubation at 18° C., 0%) of less than 2000 µg/mL. The solubility at 30 s ([1]; aqueous with cosolvent or surfactant or cyclodextrin, 10% glycerol, read-out: Solubility of glycerol-containing formulations post vortexing, 10%) was less than 2000 µg/mL, the solubility at 30 s ([1]; aqueous with cosolvent or surfactant or cyclodextrin, 20% glycerol, read-out: Solubility of glycerol-containing formulations post vortexing, 20%) was less than 2000 µg/mL and the solubility at 30 s ([1]; aqueous with cosolvent or surfactant or cyclodextrin, 30% glycerol, read-out: Solubility of glycerol-containing formulations post vortexing, 30%) was less than 2000 µg/mL. For the same compound, the solubility at 30 s ([1]; aqueous with cosolvent or surfactant or cyclodextrin, 40% glycerol, read-out: Solubility of glycerol-containing formulations post vortexing, 40%) was less than 2000 µg/mL, the solubility at 30 s ([1]; aqueous with cosolvent or surfactant or cyclodextrin, 50% glycerol, read-out: Solubility of glycerol-containing formulations post vortexing, 50%) was less than 2000 µg/mL and the solubility at 30 s ([1]; 0% glycerol, read-out: Solubility of glycerol-containing formulations post vortexing, 0%) was less than 2000 µg/mL. The “Solubility of sodium deoxycholate-containing formulations after 30 min incubation at 18° C., 50 mg/mL” value ([2]; sodium deoxycholate 50 mg/mL, after 30 minutes incubation at 18° C.) was “MFG”, the “Solubility of sodium deoxycholate-containing formulations after 30 min incubation at 18° C., 100 mg/mL” value ([2]; sodium deoxycholate 100 mg/mL, after 30 minutes incubation at 18° C.) was “MFG” and the solubility at 30 s ([2]; sodium deoxycholate-containing formulation, aqueous with cosolvent or surfactant or cyclodextrin, sodium deoxycholate 12.5 mg/mL, read-out: Solubility of sodium deoxycholate-containing formulations post vortexing, 12.5 mg/mL) was less than 2000 µg/mL. It also gave a solubility at 30 s ([2]; sodium deoxycholate-containing formulation, aqueous with cosolvent or surfactant or cyclodextrin, sodium deoxycholate 25 mg/mL, read-out: Solubility of sodium deoxycholate-containing formulations post vortexing, 25 mg/mL) of less than 2000 µg/mL, a solubility at 30 s ([2]; sodium deoxycholate-containing formulation, aqueous with cosolvent or surfactant or cyclodextrin, sodium deoxycholate 50 mg/mL, read-out: Solubility of sodium deoxycholate-containing formulations post vortexing, 50 mg/mL) of less than 2000 µg/mL and a solubility at 30 s ([2]; sodium deoxycholate-containing formulation, aqueous with cosolvent or surfactant or cyclodextrin, sodium deoxycholate 100 mg/mL, read-out: Solubility of sodium deoxycholate-containing formulations post vortexing, 100 mg/mL) of less than 2000 µg/mL. The solubility at 30 min ([2]; sodium deoxycholate-containing formulation, aqueous with cosolvent or surfactant or cyclodextrin, sodium deoxycholate 12.5 mg/mL, after 30 minutes incubation at 18° C.) was less than 2000 µg/mL, the solubility ([2]; sodium deoxycholate-containing formulation, aqueous with cosolvent or surfactant or cyclodextrin, sodium deoxycholate 12.5 mg/mL, overnight incubation at 18° C., read-out: Solubility of sodium deoxycholate-containing formulations after overnight incubation at 18° C., 12.5 mg/mL) was greater than 2000 µg/mL and the solubility at 30 min ([3]; BSA 40 mg/mL, read-out: Solubility of BSA-containing formulations after 30 min incubation at 18° C., 40 mg/mL) was less than 2000 µg/mL. The solubility ([3]; BSA 40 mg/mL, read-out: Solubility of BSA-containing formulations after overnight incubation at 18° C., 40 mg/mL) was less than 2000 µg/mL, the solubility at 30 min ([3]; BSA 60 mg/mL, read-out: Solubility of BSA-containing formulations after 30 min incubation at 18° C., 60 mg/mL) was less than 2000 µg/mL and the solubility ([3]; BSA 60 mg/mL, read-out: Solubility of BSA-containing formulations after overnight incubation at 18° C., 60 mg/mL) was less than 2000 µg/mL. It also gave a solubility at 30 min ([3]; BSA 80 mg/mL, read-out: Solubility of BSA-containing formulations after 30 min incubation at 18° C., 80 mg/mL) of less than 2000 µg/mL, a solubility ([3]; BSA 80 mg/mL, read-out: Solubility of BSA-containing formulations after overnight incubation at 18° C., 80 mg/mL) of less than 2000 µg/mL and a solubility at 30 min ([3]; BSA 100 mg/mL, read-out: Solubility of BSA-containing formulations after 30 min incubation at 18° C., 100 mg/mL) of less than 2000 µg/mL. For the same compound, the solubility ([3]; BSA 100 mg/mL, read-out: Solubility of BSA-containing formulations after overnight incubation at 18° C., 100 mg/mL) was less than 2000 µg/mL, the solubility at 30 s ([3]; BSA 40 mg/mL, read-out: Solubility of BSA-containing formulations post vortexing, 40 mg/mL) was less than 2000 µg/mL and the solubility at 30 s ([3]; BSA 60 mg/mL, read-out: Solubility of BSA-containing formulations post vortexing, 60 mg/mL) was less than 2000 µg/mL. The solubility at 30 s ([3]; BSA 80 mg/mL, read-out: Solubility of BSA-containing formulations post vortexing, 80 mg/mL) was less than 2000 µg/mL and the solubility at 30 s ([3]; BSA 100 mg/mL, read-out: Solubility of BSA-containing formulations post vortexing, 100 mg/mL) was less than 2000 µg/mL.
